Laboratory results as given in paper PMC8634709, “Neuroprotective Potential of Tamarillo (Cyphomandra betacea) Epicarp Extracts Obtained by Sustainable Extraction Process” (Frontiers in Nutrition, 2021).
Marks after values point to notes of the source that are not given here.

Experiments:
Settings in all cases: mean ± SD (n = 3)
[1] = RNS scavenging capacity (NO radical scavenging, Griess reaction)
Method: Reactive nitrogen species scavenging capacity was measured following the NO^· radical scavenging assay according to Ho et al. ([34]) and based on the Griess reaction. […] Each measurement was carried out in triplicate, and ascorbic acid and rosemary extract were used as chemical and natural positive controls, respectively. The NO scavenging capacity of the extract was expressed through inhibition % calculated as described in Equation (3).

[2] = ABTS radical scavenging assay
Method: ABTS^·+ radical scavenging assay was performed according to Re et al. ([32]), with modifications. TE at six different concentrations of each sample [from 2.9 to 29 μg/ml EtOH/H2O (1:1, v/v)] was used, giving a linear response between 20 and 80% of the control absorbance. All the measurements were performed in triplicate. Equation (3) represents the percentage of ABTS^·+ inhibition due to TE extracts and Trolox compared with the ABTS control.
(3) %Inh=AABTS control−(Asample−Asample blank)/AABTS control x 100
where A ABTScontrol is absorbance of radical at t = 0 min; Asample, represents the mean of absorbance readings of TE samples, and ASampleblank is the absorbance of the sample without ABTS. The capacity of free radical scavenging was expressed by IC50 value, and the results represent the mean inhibitory concentration (in μg/ml) of TE against ABTS^·+ radical.

[3] = ROS scavenging capacity (ORAC method)
Method: In this case, a concentration range of extract from 0.62 to 6.2 μg/ml in EtOH/H2O (1:9, v/v) was measured. […] The measurements were carried out in triplicate.
(4) %Inh=AUCControl−AUCsample/AUCcontrol x 100
AUC was calculated by means of Equation (5).
where f0 and fi are fluorescence at t = 0 and every 5 min, respectively.

Structure (SMILES)	RNS IC50 [1]	ABTS IC50 [2]	ROS (ORAC) IC50 [3]
O=C1O[C@H]([C@@H](O)CO)C(O)=C1O [Ascorbic acid]	1100.901 ± 3.96^c μg/ml	25.000 ± 0.30^f μg/mL extract	
Cc1c(C)c2c(c(C)c1O)CCC(C)(C(=O)O)O2 (racemic) [Trolox, (±)-6-hydroxy-2,5,7,8-tetramethylchromane-2-carboxylic acid]		2.500 ± 0.02^a μg/mL extract	1.290 ± 0.09^a μg/ml
